Laboratory results reported in the supplement of paper PMC10307832.

Compound: C/C(=N\NC(=S)N1CCC1)/C2=CC=CC=N2
Assay: relative viability (nuclei count vs DMSO), 5 days (fraction); higher = more cells survive
Outline: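 Cells of lung cancer lines were placed in 1536-well plates and kept overnight at 37 °C. Pinning then delivered five library-drug doses (not always all listed), spaced by √10, onto plates anchored with vehicle, and the cells were left 5 days without changing medium. One step fixed, permeabilised and stained them with Hoechst, and MetaXpress counted nuclei in 4× images. Viability, as a median over plates, is treated-well nuclei divided by vehicle-well nuclei, with acceptance only at control CV below 25% and at least one doubling.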

| Cell Line | relative viability (0.05 µM) | relative viability (0.1581 µM) | relative viability (0.5 µM) | relative viability (1.581 µM) | relative viability (5 µM) |
| --- | --- | --- | --- | --- | --- |
| NCI-H441 | 0.233 | 0.175 | 0.185 | 0.145 | 0.123 |
| NCI-H1793 | 0.181 | 0.215 | 0.176 | 0.16 | 0.168 |
| NCI-H23 | 0.17 | 0.196 | 0.187 | 0.154 | 0.172 |
| HARA | 0.193 | 0.21 | 0.138 | 0.143 | 0.138 |
| NCI-H1792 | 0.362 | 0.234 | 0.227 | 0.184 | 0.134 |
| NCI-H1703 | 0.0684 | 0.0887 | 0.112 | 0.126 | 0.161 |
| NCI-H2342 | 0.274 | 0.277 | 0.266 | 0.239 | 0.259 |
| CAL-12T | 0.197 | 0.181 | 0.16 | 0.149 | 0.133 |
| NCI-H727 | 0.25 | 0.235 | 0.245 | 0.27 | 0.272 |
| NCI-H2085 | 0.359 | 0.321 | 0.357 | 0.299 | 0.313 |
| NCI-H1395 | 0.423 | 0.41 | 0.336 | 0.344 | 0.383 |
| NCI-H1648 | 0.317 | 0.278 | 0.25 | 0.317 | 0.304 |
| NCI-H460 | 0.0678 | 0.0619 | 0.0798 | 0.0529 | 0.0177 |
| A549 | 0.0587 | 0.0516 | 0.0603 | 0.0557 | 0.0345 |
| IA-LM | 0.0692 | 0.0771 | 0.0669 | 0.0644 | 0.0517 |
| EKVX | 0.129 | 0.138 | 0.118 | 0.153 | 0.161 |
| ChaGo-K-1 | 0.204 | 0.227 | 0.2 | 0.18 | 0.186 |
| NCI-H1755 | 0.353 | 0.332 | 0.321 | 0.303 | 0.282 |
| NCI-H2228 | 0.192 | 0.217 | 0.21 | 0.118 | 0.187 |
| NCI-H2087 | 0.16 | 0.218 | 0.19 | 0.165 | 0.138 |
| LU99A | 0.161 | 0.209 | 0.162 | 0.145 | 0.182 |
| NCI-H1355 | 0.204 | 0.216 | 0.21 | 0.197 | 0.214 |
| NCI-H520 | 0.164 | 0.17 | 0.141 | 0.16 | 0.172 |
| NCI-H661 | 0.288 | 0.32 | 0.317 | 0.255 | 0.262 |
| NCI-H650 | 0.22 | 0.232 | 0.222 | 0.196 | 0.175 |
| NCI-H647 | 0.114 | 0.116 | 0.136 | 0.115 | 0.0991 |

| Cell Line | relative viability (0.05 µM) | relative viability (0.1581 µM) | relative viability (0.5 µM) | relative viability (1.581 µM) | relative viability (5 µM) |
| --- | --- | --- | --- | --- | --- |
| 201T | 0.432 | 0.443 | 0.353 | 0.345 | 0.309 |
| NCI-H838 | 0.247 | 0.255 | 0.279 | 0.179 | 0.185 |
| SW 1573 | 0.119 | 0.115 | 0.143 | 0.102 | 0.0766 |
| PC-14 | 0.0727 | 0.104 | 0.0714 | 0.0553 | 0.064 |
| LK-2 | 0.172 | 0.182 | 0.18 | 0.14 | 0.176 |
| COR-L23 | 0.148 | 0.133 | 0.138 | 0.113 | 0.102 |
| NCI-H1944 | 0.263 | 0.179 | 0.19 | 0.161 | 0.151 |
| HCC-78 | 0.459 | 0.472 | 0.355 | 0.232 | 0.234 |
| NCI-H2405 | 0.294 | 0.296 | 0.288 | 0.274 | 0.283 |
| SK-LU-1 | 0.24 | 0.233 | 0.25 | 0.168 | 0.208 |
| EMC-BAC-2 | 0.215 | 0.237 | 0.219 | 0.189 | 0.207 |
| NCI-H1650 | 0.18 | 0.26 | 0.183 | 0.173 | 0.199 |
| NCI-H596 | 0.307 | 0.311 | 0.257 | 0.222 | 0.263 |
| LCLC-97TM1 | 0.0886 | 0.109 | 0.0593 | 0.0801 | 0.0822 |
| H3255 | 0.316 | 0.331 | 0.273 | 0.254 | 0.274 |
| LXF-289 | 0.276 | 0.313 | 0.278 | 0.292 | 0.119 |
| UMC-11 | 0.262 | 0.241 | 0.23 | 0.193 | 0.175 |
| LC-2-ad | 0.209 | 0.242 | 0.217 | 0.163 | 0.231 |
| SK-MES-1 | 0.197 | 0.231 | 0.192 | 0.171 | 0.19 |
| A-427 | 0.16 | 0.173 | 0.15 | 0.144 | 0.156 |
| NCI-H322M | 0.337 | 0.337 | 0.352 | 0.329 | 0.35 |
| HCC-366 | 0.0382 | 0.0453 | 0.0381 | 0.0627 | 0.0401 |
| NCI-H1975 | 0.178 | 0.179 | 0.168 | 0.158 | 0.185 |
| NCI-H1437 | 0.242 | 0.235 | 0.206 | 0.173 | 0.155 |
| NCI-H2009 | 0.122 | 0.17 | 0.166 | 0.156 | 0.138 |
| NCI-H1651 | 0.19 | 0.175 | 0.152 | 0.11 | 0.105 |

| Cell Line | relative viability (0.05 µM) | relative viability (0.1581 µM) | relative viability (0.5 µM) | relative viability (1.581 µM) | relative viability (5 µM) |
| --- | --- | --- | --- | --- | --- |
| LCLC-103H | 0.336 | 0.331 | 0.347 | 0.335 | 0.357 |
| NCI-H1666 | 0.433 | 0.404 | 0.369 | 0.349 | 0.329 |
| NCI-H1734 | 0.184 | 0.186 | 0.189 | 0.13 | 0.116 |
| EPLC-272H | 0.163 | 0.161 | 0.124 | 0.0926 | 0.136 |
| NCI-H2023 | 0.0831 | 0.0809 | 0.0814 | 0.0675 | 0.0747 |
| BEN | 0.278 | 0.237 | 0.276 | 0.23 | 0.227 |
| COR-L 105 | 0.287 | 0.364 | 0.342 | 0.245 | 0.292 |
| ABC-1 | 0.38 | 0.303 | 0.245 | 0.259 | 0.361 |
| HCC-15 | 0.0583 | 0.0886 | 0.0939 | 0.094 | 0.0906 |
| NCI-H2170 | 0.391 | 0.282 | 0.268 | 0.198 | 0.176 |
| PC-3 [JPC-3] | 0.473 | 0.459 | 0.358 | 0.309 | 0.231 |
| NCI-H1993 | 0.472 | 0.529 | 0.593 | 0.499 | 0.577 |
| NCI-H358 | 0.132 | 0.125 | 0.143 | 0.119 | 0.114 |
| NCI-H1563 | 0.62 | 0.6 | 0.504 | 0.538 | 0.522 |
| EBC-1 | 0.169 | 0.214 | 0.169 | 0.127 | 0.154 |
| NCI-H1915 | 0.237 | 0.216 | 0.199 | 0.179 | 0.178 |
| RERF-LC-KJ | 0.263 | 0.262 | 0.252 | 0.244 | 0.248 |
| LOU-NH91 | 0.5 | 0.572 | 0.553 | 0.42 | 0.464 |
| NCI-H2347 | 0.315 | 0.346 | 0.34 | 0.256 | 0.313 |
| NCI-H2126 | 0.236 | 0.246 | 0.214 | 0.197 | 0.21 |
| HCC-827 | 0.44 | 0.359 | 0.316 | 0.275 | 0.205 |
| Calu-6 | 0.118 | 0.147 | 0.154 | 0.12 | 0.14 |
| NCI-H3122 | 0.13 | 0.121 | 0.129 | 0.168 | 0.141 |
| HOP-62 | 0.111 | 0.0963 | 0.114 | 0.11 | 0.114 |
| HCC-44 | 0.351 | 0.279 | 0.299 | 0.246 | 0.24 |
